Experimental findings from PubChem BioAssay (NCI) are described below.

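Cultured in 96-well plates, cells were exposed to test compound for 48 hours across five concentrations. TGI denotes the concentration required for complete inhibition of growth.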 Where only a bound is given, the exact number is not on record here.

Assay in all cases: DTP human tumour cell line panel, 48 h
The subject of assay [1] is 786-0 renal.
Assay [2] concerns CAKI-1 renal.
For assay [3], the system named is HOP-62 NSCLC.
Assay [4] deals with HS 578T breast.
Assay [5] concerns KM12 colon.
Assay [6] concerns OVCAR-5 ovarian.
Assay [7] relates to RPMI-8226 leukemia.
In assay [8] the test system is SK-MEL-2 melanoma.
In assay [9] the test system is SNB-19 CNS.
Assay [10] relates to SNB-75 CNS.

On to `COc1cc(NS(C)(=O)=O)ccc1N1Cc2cnc3ccc4[nH]c(C)cc1c4c23`, for which the TGI – broadly, the concentration giving total growth inhibition – in assay [1] is 36.5 µM; in assay [2] it was 74.5 µM; in assay [3], 71.9 µM; in assay [4], > 100 µM; in assay [5], > 100 µM; in [6], > 100 µM. The TGI was 88.2 µM in [7], > 100 µM in [8], 32.7 µM in assay [9] and 46.5 µM in [10].

For the molecule `CC1CC[C@@]2(OC1)OC1C[C@H]3[C@@H]4CC[C@H]5CC(OC6OC(CO)C(OC7OC(CO)C(O)C(O)C7OC7OC(CO)C(O)C(O)C7O)C(O)C6O)CCC5(C)[C@H]4CCC3(C)C1[C@@H]2C` (stereo not given in full), the TGI in [1] worked out at 5.44 µM; in [2] it was 10.6 µM; in assay [3], 3.65 µM; in assay [4], 7.44 µM; in [5], 10.4 µM; in [6], 8.08 µM. Further, the TGI worked out at 6.96 µM in assay [7], 8.05 µM in assay [8], 10.3 µM in assay [9] and 4.81 µM in assay [10].

With `c1ccc2sc(SCSc3nc4ccccc4s3)nc2c1`, the TGI in assay [1], in assay [2], in assay [3], in assay [4], in assay [5] and in assay [6] was > 100 µM each time. The TGI in assay [7], in assay [8], in [9] and in assay [10] was > 100 µM throughout.

Turning to `CC(C)COP(=O)(OCC(C)C)C(NS(=O)(=O)c1ccccc1)(C(F)(F)F)C(F)(F)F`, the TGI in assay [1] stood at 25.7 µM; in assay [2], 18.6 µM; in assay [3] it was 35.1 µM; in assay [4], 97.9 µM; in [5] it was 14.4 µM; in assay [6], 38.1 µM. Further, the TGI in assay [7] is 6.46 µM; in [8], 14.3 µM; in [9], 54.1 µM; in assay [10], 12.6 µM.

For `O=C1c2cc3c(cc2CC1Br)CCC3` (stereo not given), the TGI is 3.47 µM in assay [1]; 3.23 µM in [2]; 30.8 µM in assay [3]; > 100 µM in assay [4]; 22.1 µM in [5]; 14.9 µM in [6]. The TGI in [7] worked out at 4.45 µM; in assay [8], 5.2 µM; in assay [9], 27.6 µM; in assay [10], 7.44 µM.

Consider `Oc1ccccc1/C=N/c1nc2cc3sc(/N=C/c4ccccc4O)nc3cc2s1`, for which the TGI in [1] was > 100 µM; in assay [2], > 100 µM; in assay [3] it was > 100 µM; in assay [4], > 89 µM; in assay [5] it was > 100 µM; in [6], > 100 µM. For the same molecule, the TGI in assay [7], in assay [8], in assay [9] and in assay [10] was > 100 µM in each case.

`O=c1oc(-c2ccc(O)c(O)c2)cc2cccc(O)c12`: the TGI in [1] was 85.9 µM; in [2], 38.7 µM; in assay [3], 47.3 µM; in assay [4] it was 73.2 µM; in [5], 32.1 µM; in [6], 86.5 µM. Further, the TGI in assay [7] was 29.5 µM; in assay [8] it was 69.7 µM; in assay [9], > 76.9 µM; in [10], > 100 µM.

With `O=c1c2ccccc2nc2[nH][nH]c(=S)n12`, the total growth inhibition concentration (TGI) in assay [1], in assay [2], in assay [3], in assay [4], in assay [5] and in assay [6] was > 100 µM throughout. Further, the TGI in assay [7], in assay [8], in assay [9] and in assay [10] was > 100 µM throughout.

With `Cc1cc2[nH]c3[nH]c(=O)[nH]c(=O)c3c2cc1C`, the TGI in assay [1], in [2], in assay [3], in assay [4], in [5] and in assay [6] was > 100 µM each time. For the same molecule, the TGI in [7], in [8], in assay [9] and in assay [10] was > 100 µM each time.

Consider `CC(C)/C(Cl)=N\OC(=O)Nc1ccc(C#N)cc1`, for which the TGI in assay [1] is 11.8 µM; in assay [2], 10.3 µM; in assay [3], 31.6 µM; in assay [4], 39.8 µM; in [5], 29.9 µM; in assay [6], 28.4 µM. Moreover, the TGI in assay [7] is 6.88 µM; in [8], 25.6 µM; in assay [9] it was 33.7 µM; in assay [10] it was 31.6 µM.

For `Cc1csc(-c2cn(C)c3c2C(=O)C(N)=CC3=O)n1`, the total growth inhibition concentration (TGI) was > 100 µM in assay [1]; > 64.4 µM in assay [2]; 98.5 µM in [3]; > 80.2 µM in [4]; > 100 µM in [5]; > 100 µM in assay [6]. For the same molecule, the TGI in assay [7] was > 22.8 µM; in [8], > 82.7 µM; in [9], > 100 µM; in assay [10], 6.48 µM.
